Results as given in ChEMBL document CHEMBL1149789, “SAR and QSAR studies: modelling of new DAPY derivatives” (Eur J Med Chem, 2008).

What was measured:
[1] = tested on: Human immunodeficiency virus; assay: Inhibition of HIV reverse transcriptase
[2] = Partition coefficient, log P of the compound; type: physicochemical; conditions: octanol/water

EC50 [1] [nM]	logP ([2]; read-out: logP)	Compound	logP [2]
2.3	1.79	Cc1cc(Br)cc(C)c1Nc1ccnc(Nc2ccc(C#N)cc2)n1	–
1.4	1.54	Cc1cc(C#N)cc(C)c1Oc1nc(Nc2ccc(C#N)cc2)ncc1Cl	–
0.7	0.77	N#Cc1ccc(Nc2nccc(Nc3c(Cl)cc(Cl)cc3Cl)n2)cc1	–
1	1.74	Cc1cc(C)c(Nc2nc(Nc3ccc(C#N)cc3)ncc2C#N)c(C)c1	–
1	1.14	Cc1cc(Cl)cc(Cl)c1Nc1ccnc(Nc2ccc(C#N)cc2)n1	–
1.7	2.17	Cc1cc(C)c(Nc2nc(Nc3ccc(C#N)cc3)ncc2C)c(C)c1	–
0.7	1.69	Cc1cc(Br)c(Nc2ccnc(Nc3ccc(C#N)cc3)n2)c(Br)c1	–
2.7	1.8	Cc1cc(C)c(Nc2nc(Nc3ccc(C#N)cc3)ncc2Cl)c(C)c1	–
0.7	1.74	Cc1cccc(C)c1Nc1ccnc(Nc2ccc(C#N)cc2)n1	–
2.9	1.97	Cc1cc(Br)cc(C)c1Oc1ccnc(Nc2ccc(C#N)cc2)n1	–
2.1	1.52	Cc1cc(Cl)cc(C)c1Nc1ccnc(Nc2ccc(C#N)cc2)n1	–
2.5	2.36	C=Cc1cnc(Nc2ccc(C#N)cc2)nc1Nc1c(C)cc(C#N)cc1C	–
3.6	2.42	Cc1cc(C)c(Sc2ccnc(Nc3ccc(C#N)cc3)n2)c(C)c1	–
5.5	1.79	C#Cc1cc(C)c(Oc2ccnc(Nc3ccc(C#N)cc3)n2)c(C)c1	–
0.6	0.94	N#Cc1ccc(Nc2nccc(Nc3c(Br)cc(F)cc3Br)n2)cc1	–
1	1.9	Cc1cc(C)c(Nc2ccnc(Nc3ccc(C#N)cc3)n2)c(C)c1 [DAPIVIRINE]	–

Continued, compound first:

Compound	EC50 [1] [nM]	logP ([2]; read-out: logP)	logP [2]
Cc1cc(C)c(Nc2nc(Nc3ccc(C#N)cc3)ncc2Br)c(C)c1	5.5	2.07	–
Cc1cc(C#N)cc(C)c1Oc1ccnc(Nc2ccc(C#N)cc2)n1	1.1	1.64	–
Cc1cc(C#N)cc(C)c1Nc1nc(Nc2ccc(C#N)cc2)ncc1Br	0.4	1.64	–
Cc1cc(C#N)cc(C)c1Oc1nc(Nc2ccc(C#N)cc2)ncc1[N+](=O)[O-]	18	–	-0.98
Cc1cc(C#N)cc(C)c1Nc1nc(Nc2ccc(C#N)cc2)ncc1C#N	0.5	1.31	–
C#Cc1cnc(Nc2ccc(C#N)cc2)nc1Nc1c(C)cc(C)cc1C	–	1.89	–
Cc1cc(C#N)cc(C)c1Oc1nc(Nc2ccc(C#N)cc2)ncc1Br	1.4	1.82	–
Cc1cc(C#N)cc(C)c1Nc1ccnc(Nc2ccc(C#N)cc2)n1	0.4	1.47	–
Cc1cnc(Nc2ccc(C#N)cc2)nc1Nc1c(C)cc(C#N)cc1C	0.8	1.74	–
Cc1cc(C)c(Oc2ccnc(Nc3ccc(C#N)cc3)n2)c(C)c1	2.9	2.07	–
Cc1cc(C#N)cc(C)c1Oc1nc(Nc2ccc(C#N)cc2)nc(N)c1Br [ETRAVIRINE]	1.4	1.82	–
Cc1cc(C#N)cc(C)c1Oc1nc(Nc2ccc(C#N)cc2)ncc1N	1	0.05	–
Cc1cc(Br)cc(C)c1Sc1ccnc(Nc2ccc(C#N)cc2)n1	5.7	2.31	–
CC(=O)Nc1cnc(Nc2ccc(C#N)cc2)nc1Oc1c(C)cc(C#N)cc1C	–	-0.12	–
Cc1cc(C#N)cc(C)c1Nc1nc(Nc2ccc(C#N)cc2)ncc1Cl	1.2	1.37	–
